± gives the standard deviation of the averaged measurements.
Columns and labels:
Assay in all cases: level (log10 ratio to DMSO vehicle control); higher = higher biomarker level / cell amount than vehicle control
Conditions in all cases: in DMSO
[1] = compound: O=C(O)C(F)(F)C(F)(F)C(F)(F)F [Perfluorobutanoic acid]
Procedure: (§1)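 BioMAP Diversity Plus panel of 12 human primary cell co-culture systems (3C, 4H, LPS, SAg, BT, BF4T, BE3C, CASM3C, HDF3CGF, KF3CT, MyoF, Mphg). Compounds were added 1 h before stimulation and left for 24 h (MyoF 48 h; BT 72 h for soluble read-outs or 6 d for IgG). Biomarkers were read by ELISA, cytotoxicity by SRB, PBMC viability and proliferation by Alamar Blue. Each well value was divided by the mean of 8 DMSO control wells on the same plate and log10 transformed; duplicate blinded samples were tested at 4 concentrations.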

[2] = compound: O=C(O)C(F)(F)OC(F)(F)C(F)(F)OC(F)(F)C(=O)O [Perfluoro-3,6-dioxaoctane-1,8-dioic acid]
Procedure: as §1

[3] = compound: FC(F)C(F)(F)COCC1CO1 [((2,2,3,3-Tetrafluoropropoxy)methyl)oxirane]
Procedure: as §1

[4] = compound: CCN(CCO)S(=O)(=O)C(F)(F)C(F)(F)C(F)(F)C(F)(F)C(F)(F)C(F)(F)C(F)(F)C(F)(F)F [N-Ethyl-N-(2-hydroxyethyl)perfluorooctanesulfonamide]
Procedure: as §1

[5] = compound: C=CC(F)(F)C(F)(F)C(F)(F)C(F)(F)C(F)(F)C(F)(F)C(F)(F)C(F)(F)C=C [1,8-Divinylperfluorooctane]
Procedure: as §1

[6] = compound: O=C(O)C(F)(F)C(F)(F)C(F)F [4H-Perfluorobutanoic acid]
Procedure: as §1

[7] = compound: O=S(=O)(O)C(F)(F)C(F)(F)C(F)(F)C(F)(F)C(F)(F)C(F)(F)F [Perfluorohexanesulfonic acid]
Procedure: as §1

Row | Test System | level (log10) ([1]; 6700 nM) | level (log10) ([1]; 20000 nM) | level (log10) ([1]; 60000 nM) | level (log10) ([2]; 6700 nM) | level (log10) ([2]; 20000 nM) | level (log10) ([2]; 60000 nM) | level (log10) ([3]; 6700 nM) | level (log10) ([3]; 20000 nM) | level (log10) ([3]; 60000 nM) | level (log10) ([4]; 6700 nM) | level (log10) ([4]; 20000 nM) | level (log10) ([5]; 6700 nM) | level (log10) ([5]; 20000 nM) | level (log10) ([6]; 6700 nM) | level (log10) ([6]; 20000 nM) | level (log10) ([6]; 60000 nM) | level (log10) ([7]; 6700 nM) | level (log10) ([7]; 20000 nM) | level (log10) ([7]; 60000 nM)
1 | HDF3CGF:SRB | 0.0125 ± 0.0064 | -0.007 ± 0.0028 | 0.002 ± 0.0071 | 0.009 ± 0.041 | -0.0035 ± 0.015 | -0.0125 ± 0.012 | 0.004 ± 0.0057 | -0.002 ± 0.02 | -0.011 ± 0.1 | -0.127 ± 0.011 | -0.153 ± 0.084 | 0.025 ± 0.051 | 0.069 ± 0.14 | -0.0125 ± 0.06 | -0.0095 ± 0.0035 | 0.0155 ± 0.022 | 0.017 ± 0.011 | 0.0145 ± 0.022 | -0.009 ± 0.0085
2 | MyoF:CD106/VCAM-1 | -0.013 ± 0.0028 | -0.007 ± 0.0014 | -0.0075 ± 0.015 | -0.022 ± 0.016 | 0.0025 ± 0.005 | 0.0005 ± 0.019 | -0.0075 ± 0.0035 | -0.025 ± 0.031 | -0.011 ± 0.044 | -0.0675 ± 0.0064 | -0.534 ± 0.053 | 0.006 ± 0.0042 | 0.0075 ± 0.018 | -0.0065 ± 0.011 | -0.017 ± 0.0071 | 0.0135 ± 0.015 | 0.005 ± 0.018 | 0.003 ± 0.0042 | -0.0145 ± 0.023
3 | 3C:CD62E/E-Selectin | -0.0155 ± 0.011 | 0.0075 ± 0.012 | -0.0185 ± 0.0035 | 0.0015 ± 0.029 | -0.0185 ± 0.0092 | -0.005 ± 0.02 | 0.0085 ± 0.0021 | 0.0105 ± 0.03 | 0.003 ± 0.047 | 0.0685 ± 0.012 | 0.068 ± 0.0057 | -0.0305 ± 0.025 | -0.014 ± 0.024 | -0.024 | -0.0235 ± 0.0092 | 0.017 ± 0.03 | -0.0075 ± 0.011 | 0.012 ± 0.0042 | 0.0685 ± 0.018
4 | MyoF:Decorin | -0.013 ± 0.0014 | -0.0105 ± 0.039 | -0.0025 ± 0.00071 | -0.0045 ± 0.011 | -0.01 | -0.0005 ± 0.013 | -0.0065 ± 0.0035 | -0.007 ± 0.0071 | 0.0075 ± 0.012 | -0.0095 ± 0.016 | -0.085 ± 0.028 | 0.0075 ± 0.013 | 0.0335 ± 0.022 | -0.005 ± 0.048 | 0.003 ± 0.064 | 0.0655 ± 0.088 | -0.0305 ± 0.046 | -0.0105 ± 0.00071 | -0.0095 ± 0.0064
5 | KF3CT:SRB | -0.008 ± 0.0042 | -0.0005 ± 0.00071 | 0.006 ± 0.018 | -0.0185 ± 0.011 | -0.0185 ± 0.0092 | 0.0015 ± 0.012 | -0.0085 ± 0.0035 | -0.0055 ± 0.0092 | 0.012 ± 0.034 | -0.015 | -0.0305 ± 0.0092 | -0.011 ± 0.018 | -0.0235 ± 0.005 | -0.005 ± 0.0071 | -0.0065 ± 0.0064 | -0.008 ± 0.0014 | -0.0015 ± 0.0021 | -0.0095 ± 0.005 | 0.0005 ± 0.023
6 | KF3CT:IL-1alpha | -0.0085 ± 0.012 | 0.006 ± 0.062 | 0.019 ± 0.058 | 0.0075 ± 0.00071 | -0.0065 ± 0.013 | 0.02 ± 0.013 | 0.006 ± 0.011 | -0.0085 ± 0.013 | 0.0055 ± 0.039 | 0.006 ± 0.028 | -0.111 | -0.0455 ± 0.013 | -0.0075 ± 0.057 | 0.001 ± 0.05 | -0.0055 ± 0.005 | 0.0075 ± 0.06 | 0.0065 ± 0.054 | -0.014 ± 0.016 | -0.015 ± 0.017
7 | lMphg:CD40 | -0.049 ± 0.11 | -0.025 ± 0.038 | 0.023 ± 0.068 | -0.03 ± 0.017 | -0.0085 ± 0.013 | -0.0105 ± 0.016 | 0.0185 ± 0.061 | 0.0195 ± 0.029 | 0.0015 ± 0.011 | -0.025 ± 0.017 | -0.0335 ± 0.018 | -0.04 ± 0.0099 | -0.0195 ± 0.032 | 0.0065 ± 0.028 | -0.0035 ± 0.039 | 0.007 ± 0.024 | -0.0205 ± 0.037 | 0.019 ± 0.011 | 0.0045 ± 0.011
8 | HDF3CGF:CD106/VCAM-1 | -0.008 ± 0.0014 | 0.0295 ± 0.026 | -0.0085 ± 0.015 | -0.0075 ± 0.00071 | -0.0085 ± 0.016 | -0.0035 ± 0.05 | -0.001 ± 0.016 | -0.0075 ± 0.023 | -0.0295 ± 0.037 | -0.0825 ± 0.046 | -0.173 ± 0.11 | -0.028 ± 0.021 | -0.016 ± 0.017 | -0.0385 ± 0.018 | -0.0525 ± 0.022 | -0.0445 ± 0.096 | 0.0105 ± 0.011 | 0.0165 ± 0.00071 | -0.0155 ± 0.0035
9 | lMphg:IL-1alpha | 0.002 ± 0.041 | 0.022 ± 0.079 | 0.0365 ± 0.076 | 0.009 ± 0.018 | 0.001 | 0.0015 ± 0.0035 | -0.004 ± 0.017 | -0.039 ± 0.035 | -0.0235 ± 0.033 | -0.018 ± 0.054 | -0.0235 ± 0.018 | 0.003 ± 0.027 | 0.046 ± 0.034 | -0.0055 ± 0.0064 | -0.0355 ± 0.0064 | 0.017 ± 0.035 | 0.023 ± 0.095 | 0.012 ± 0.047 | 0.0305 ± 0.063
10 | BE3C:MMP-9 | -0.0075 ± 0.021 | -0.007 ± 0.035 | -0.0145 ± 0.015 | -0.0115 ± 0.0078 | -0.0035 ± 0.028 | 0.0385 ± 0.00071 | -0.0135 ± 0.015 | -0.03 ± 0.028 | -0.005 ± 0.0028 | 0.018 ± 0.0071 | -0.0535 ± 0.04 | -0.0165 ± 0.011 | -0.0165 ± 0.012 | -0.0105 ± 0.019 | 0.02 ± 0.023 | -0.009 ± 0.02 | 0.0095 ± 0.026 | 0.014 ± 0.0071 | 0.0275 ± 0.00071
